In one test the test system is Meth A fibrosarcoma. Description: Antitumor testing against Meth A fibrosarcoma (oral, s.c. implanted). The class given is in vivo, mice. To be noted: Mus musculus, read-out: Inhibition of tumor growth; for inhibition in vivo at 1500 µmol/kg: 1.5 mmole/kg/day × 7, p.o.; for inhibition in vivo at 3000 µmol/kg: 3.0 mmole/kg/day × 7, p.o.; for inhibition in vivo at 800 µmol/kg: 0.8 mmole/kg/day × 7, p.o. On the procedure: (§1) Sarcoma 180 cells (2×10^6 cells) were implanted subcutaneously into mice (20-22 g) on day 0. The compounds of the present invention were administered daily from day 1 through 7 orally. The animals were sacrificed on day 14 and tumors were excised and weighed. The percent inhibition of tumor growth given in Table 1 below was calculated from the formula:
(§2) T=weight of the tumors from the treated group, C=weight of the tumors from the control group.
Meth A fibrosarcoma cells (2×10^5 cells) were implanted subcutaneously into mice (21-22 g). The testing against Meth A fibrosarcoma and the calculation of the percent inhibition of tumor growth were effected according to a manner analogous to that of the testing against Sarcoma 180.

In the next test the test system is Sarcoma 180. Description: Antitumor testing against Sarcoma 180 (oral, s.c. implanted). The class given is in vivo, mice. The conditions noted are these: Mus musculus, 336 h, day 14, read-out: Inhibition of tumor growth; for inhibition in vivo at 1500 µmol/kg: 1.5 mmole/kg/day × 7, p.o.; for inhibition in vivo at 3000 µmol/kg: 3.0 mmole/kg/day × 7, p.o.; for inhibition in vivo at 800 µmol/kg: 0.8 mmole/kg/day × 7, p.o. On the procedure:
as §1, §2

On to `C[C@H]1O[C@@H](n2cc(F)c(NC(=O)c3cccs3)nc2=O)[C@H](O)[C@@H]1O` [Example 37, 5'-deoxy-5-fluoro-N^4-(2-thenoyl)cytidine], for which, in the test on Meth A fibrosarcoma, the inhibition in vivo at 1500 µmol/kg worked out at 59% and the inhibition in vivo at 3000 µmol/kg was 86%.
Turning to `CC(=O)Nc1nc(=O)n([C@@H]2O[C@H](C)[C@@H](O)[C@H]2O)cc1F` [Example 2, N^4-acetyl-5'-deoxy-5-fluorocytidine], in the test with Sarcoma 180, the inhibition in vivo at 1500 µmol/kg was 84% and the inhibition in vivo at 3000 µmol/kg was found to be 91%.
For the molecule `CCCCCCCCCCCCCCCCCC(=O)Nc1nc(=O)n([C@@H]2O[C@H](C)[C@@H](O)[C@H]2O)cc1F` [Example 8, 5'-deoxy-5-fluoro-N^4-octadecanoylcytidine], the inhibition in vivo at 1400 µmol/kg in the test on Sarcoma 180 (1.4 mmole/kg/day × 7, p.o.) is 20%. Further, the inhibition in vivo at 2700 µmol/kg with Sarcoma 180 (2.7 mmole/kg/day × 7, p.o.) came to 77%.
On to `COC(=O)c1ccc(C(=O)Nc2nc(=O)n([C@@H]3O[C@H](C)[C@@H](O)[C@H]3O)cc2F)cc1` [Example 31, 5'-deoxy-5-fluoro-N^4-(4-methoxycarbonylbenzoyl)cytidine], for which, in the test on Meth A fibrosarcoma, the inhibition in vivo at 1500 µmol/kg was 55% and the inhibition in vivo at 3000 µmol/kg was determined as 84%.
For the molecule `C[C@H]1O[C@@H](n2cc(F)c(NC(=O)C(C)(C)C)nc2=O)[C@H](O)[C@@H]1O` [Example 10, 5'-deoxy-5-fluoro-N^4-pivaloylcytidine], in the test with Sarcoma 180, the inhibition in vivo at 1500 µmol/kg stood at 74% and the inhibition in vivo at 3000 µmol/kg stood at 97%.
Regarding `CCSC(=O)Nc1nc(=O)n([C@@H]2O[C@H](C)[C@@H](O)[C@H]2O)cc1F` [Example 44, 5'-deoxy-N^4-(ethylthio)carbonyl-5-fluorocytidine], in the test on Meth A fibrosarcoma, the inhibition in vivo at 1500 µmol/kg turned out to be 38% and the inhibition in vivo at 3000 µmol/kg was 66%.
`COc1ccc(C(=O)Nc2nc(=O)n([C@@H]3O[C@H](C)[C@@H](O)[C@H]3O)cc2F)cc1OC` [Example 26]: in the test on Meth A fibrosarcoma, the inhibition in vivo at 1500 µmol/kg turned out to be 37% and the inhibition in vivo at 3000 µmol/kg was found to be 58%.
With `Cc1ccc(C(=O)Nc2nc(=O)n([C@@H]3O[C@H](C)[C@@H](O)[C@H]3O)cc2F)cc1` [Example 17], the inhibition in vivo at 1300 µmol/kg in the test on Sarcoma 180 (1.3 mmole/kg/day × 7, p.o.) was determined as 75%. The inhibition in vivo at 2600 µmol/kg in the test with Sarcoma 180 (2.6 mmole/kg/day × 7, p.o.) stood at 92%.
In the case of `C[C@H]1O[C@@H](n2cc(F)c(NC(=O)c3ccco3)nc2=O)[C@H](O)[C@@H]1O` [Example 36, 5'-deoxy-5-fluoro-N^4-(2-furoyl)cytidine], in the test on Meth A fibrosarcoma, the inhibition in vivo at 1500 µmol/kg is 53% and the inhibition in vivo at 3000 µmol/kg stood at 92%.
As to `C[C@H]1O[C@@H](n2cc(F)c(NC(=O)c3cccc(Cl)c3)nc2=O)[C@H](O)[C@@H]1O` [Example 21], in the test on Meth A fibrosarcoma, the inhibition in vivo at 800 µmol/kg turned out to be 17% and the inhibition in vivo at 1500 µmol/kg amounted to 60%.
Regarding `C=CCC(=O)Nc1nc(=O)n([C@@H]2O[C@H](C)[C@@H](O)[C@H]2O)cc1F` [Example 49, N^4-(3-butenoyl)-5'-deoxy-5-fluorocytidine], in the test with Meth A fibrosarcoma, the inhibition in vivo at 1500 µmol/kg was determined as 58% and the inhibition in vivo at 3000 µmol/kg turned out to be 76%.
With `Cc1ccccc1C(=O)Nc1nc(=O)n([C@@H]2O[C@H](C)[C@@H](O)[C@H]2O)cc1F` [Example 19], in the test on Meth A fibrosarcoma, the inhibition in vivo at 1500 µmol/kg came to 3% and the inhibition in vivo at 3000 µmol/kg is 64%.
Turning to `C[C@H]1O[C@@H](n2cc(F)c(NC(=O)c3ccc(F)cc3)nc2=O)[C@H](O)[C@@H]1O` [Example 23, 5'-deoxy-5-fluoro-N^4-(4-fluorobenzoyl)cytidine], in the test with Meth A fibrosarcoma, the inhibition in vivo at 800 µmol/kg worked out at 56% and the inhibition in vivo at 1500 µmol/kg was found to be 64%.
For `C[C@H]1O[C@@H](n2cc(F)c(N)nc2=O)[C@H](OC(=O)c2ccccc2)[C@@H]1OC(=O)c1ccccc1` [Example 57, 2',3'-di-O-benxoyl-5'-deoxy-5-fluorocytidine], in the test with Meth A fibrosarcoma, the inhibition in vivo at 1500 µmol/kg came to 28% and the inhibition in vivo at 3000 µmol/kg came to 56%.
The like results for `CCC(=O)Nc1nc(=O)n([C@@H]2O[C@H](C)[C@@H](O)[C@H]2O)cc1F` [Example 45, 5'-deoxy-5-fluoro-N^4-propionylcytidine] were, in that order, 49% and 71%.
As for `C[C@H]1O[C@@H](n2cc(F)c(NC(=O)C3CC3)nc2=O)[C@H](O)[C@@H]1O` [Example 11, N^4-cyclopropanecarbonyl-5'-deoxy-5-fluorocytidine], in the test on Sarcoma 180, the inhibition in vivo at 800 µmol/kg stood at 69% and the inhibition in vivo at 1500 µmol/kg was 90%.
`Cc1ccc(C(=O)Nc2nc(=O)n([C@@H]3O[C@H](C)[C@@H](O)[C@H]3O)cc2F)cc1C` [Example 53]: in the test on Meth A fibrosarcoma, the inhibition in vivo at 1500 µmol/kg came out at 48% and the inhibition in vivo at 3000 µmol/kg worked out at 85%.
As to `CCCCCCCCC(=O)Nc1nc(=O)n([C@@H]2O[C@H](C)[C@@H](O)[C@H]2O)cc1F` [Example 6, 5'-deoxy-5-fluoro-N^4-nonanoylcytidine], the inhibition in vivo at 500 µmol/kg with Sarcoma 180 (0.5 mmole/kg/day × 7, p.o.) is 28%. Besides, in the test on Sarcoma 180, the inhibition in vivo at 1500 µmol/kg was 76%.
On to `C[C@H]1O[C@@H](n2cc(F)c(NC(=O)c3ccc4c(c3)OCO4)nc2=O)[C@H](O)[C@@H]1O` [Example 48, 5'-deoxy-5-fluoro-N^4-piperonyloylcytidine], for which, in the test with Meth A fibrosarcoma, the inhibition in vivo at 800 µmol/kg was 42% and the inhibition in vivo at 1500 µmol/kg was 72%.
For the molecule `C[C@H]1O[C@@H](n2cc(F)c(NC(=O)c3ccc(Cl)cc3)nc2=O)[C@H](O)[C@@H]1O` [Example 20], in the test with Meth A fibrosarcoma, the inhibition in vivo at 1500 µmol/kg was determined as 53% and the inhibition in vivo at 3000 µmol/kg was determined as 84%.
The like results for `COc1ccc(C(=O)Nc2nc(=O)n([C@@H]3O[C@H](C)[C@@H](O)[C@H]3O)cc2F)c(OC)c1` [Example 28] were, in that order, -13% and -13%.
The like results for `C[C@H]1O[C@@H](n2cc(F)c(NC(=O)c3ccccc3Cl)nc2=O)[C@H](O)[C@@H]1O` [Example 22] were, in that order, 42% and 42%.
Take `C[C@H]1O[C@@H](n2cc(F)c(NC(=O)c3ccc([N+](=O)[O-])cc3)nc2=O)[C@H](O)[C@@H]1O` [Example 29]: in the test with Meth A fibrosarcoma, the inhibition in vivo at 1500 µmol/kg amounted to 49% and the inhibition in vivo at 3000 µmol/kg stood at 92%.
`C[C@H]1O[C@@H](n2cc(F)c(NC(=O)C3CCCCC3)nc2=O)[C@H](O)[C@@H]1O` [Example 12, N^4-cyclohexanecarbonyl-5'-deoxy-5-fluorocytidine]: in the test with Sarcoma 180, the inhibition in vivo at 800 µmol/kg came out at 40% and the inhibition in vivo at 1500 µmol/kg came out at 73%.
Turning to `C[C@H]1O[C@@H](n2cc(F)c(NC(=O)Cc3c[nH]c4ccccc34)nc2=O)[C@H](O)[C@@H]1O` [Example 54, 5'-deoxy-5-fluoro-N^4-(3-indolylacetyl)cytidine], in the test on Meth A fibrosarcoma, the inhibition in vivo at 1500 µmol/kg was 55% and the inhibition in vivo at 3000 µmol/kg is 85%.
Regarding `C[C@H]1O[C@@H](n2cc(F)c(NC(=O)/C=C/c3ccccc3)nc2=O)[C@H](O)[C@@H]1O` [Example 15, N^4-cinnamoyl-5'-deoxy-5-fluorocytidine], in the test on Sarcoma 180, the inhibition in vivo at 800 µmol/kg was determined as 47% and the inhibition in vivo at 1500 µmol/kg came to 62%.
Regarding `C[C@H]1O[C@@H](n2cc(F)c(NC(=O)CCc3ccccc3)nc2=O)[C@H](O)[C@@H]1O` [Example 52], in the test with Meth A fibrosarcoma, the inhibition in vivo at 800 µmol/kg came out at 41% and the inhibition in vivo at 1500 µmol/kg turned out to be 51%.
For `C[C@H]1O[C@@H](n2cc(F)c(N)nc2=O)[C@H](O)[C@@H]1OC(=O)c1ccccc1` [Example 59, 3'-O-benzoyl-5'-deoxy-5-fluorocytidine], in the test with Meth A fibrosarcoma, the inhibition in vivo at 1500 µmol/kg turned out to be 23% and the inhibition in vivo at 3000 µmol/kg was found to be 80%.
Turning to `C[C@H]1O[C@@H](n2cc(F)c(NC(=O)Cc3ccccc3)nc2=O)[C@H](O)[C@@H]1O` [Example 14], in the test on Meth A fibrosarcoma, the inhibition in vivo at 1500 µmol/kg was 66% and the inhibition in vivo at 3000 µmol/kg was 94%.
Take `C[C@H]1O[C@@H](n2cc(F)c(NC(=O)c3ccccc3)nc2=O)[C@H](O)[C@@H]1O` [Example 16, N^4-benzoyl-5'-deoxy-5-fluorocytidine]: in the test with Meth A fibrosarcoma, the inhibition in vivo at 800 µmol/kg was 38% and the inhibition in vivo at 1500 µmol/kg is 58%.
For the molecule `COc1ccccc1C(=O)Nc1nc(=O)n([C@@H]2O[C@H](C)[C@@H](O)[C@H]2O)cc1F` [Example 25], in the test with Meth A fibrosarcoma, the inhibition in vivo at 1500 µmol/kg is -6% and the inhibition in vivo at 3000 µmol/kg was 34%.
In the case of `COc1cc(OC)cc(C(=O)Nc2nc(=O)n([C@@H]3O[C@H](C)[C@@H](O)[C@H]3O)cc2F)c1` [Example 27], in the test on Meth A fibrosarcoma, the inhibition in vivo at 1500 µmol/kg was determined as 58% and the inhibition in vivo at 3000 µmol/kg was found to be 91%.
For the molecule `C[C@H]1O[C@@H](n2cc(F)c(NC(=O)c3ccc4ccccc4c3)nc2=O)[C@H](O)[C@@H]1O` [Example 40, 5'-deoxy-5-fluoro-N^4-(2-naphthoyl)cytidine], in the test on Meth A fibrosarcoma, the inhibition in vivo at 800 µmol/kg was determined as 41% and the inhibition in vivo at 1500 µmol/kg amounted to 57%.
Consider `C[C@H]1O[C@@H](n2cc(F)c(NC(=O)c3cccc([N+](=O)[O-])c3)nc2=O)[C@H](O)[C@@H]1O` [Example 30], for which, in the test with Meth A fibrosarcoma, the inhibition in vivo at 1500 µmol/kg amounted to 55% and the inhibition in vivo at 3000 µmol/kg worked out at 58%.
The like results for `Cc1cccc(C(=O)Nc2nc(=O)n([C@@H]3O[C@H](C)[C@@H](O)[C@H]3O)cc2F)c1` [Example 18] were, in that order, 51% and 91%.

The values are drawn from US4966891A, “Fluorocytidine derivatives” (priority 1987, dated 1990).
